{"source": "patent US12594256B2", "about": "“A19-144, A2-73 and certain anticholinesterase inhibitor compositions and method for anti-seizure therapy” (priority 2014, dated 2026)", "key": {"[1]": {"assay": "Pharmacokinetics of metabolite AV19-144 in plasma after oral AV2-73 (LC-MS/MS)", "assay_type": "in vivo", "settings": "for MRT: read-out: mean residence time of AV19-144", "procedure": "After separation from human plasma analytes were injected into a LC-MS/MS. […] A weighted (1/x) regression 2nd order was performed to determine the concentration of the analytes. The study was conducted in accordance with the Principles of Good Laboratory Practice (GLP) as described under § 19, German Chemical Law. The validation based on the EG-Dok."}, "[2]": {"target": "sigma-1 receptors (Homo sapiens, UniProt Q99720)", "sequence (Q99720 whole entry)": "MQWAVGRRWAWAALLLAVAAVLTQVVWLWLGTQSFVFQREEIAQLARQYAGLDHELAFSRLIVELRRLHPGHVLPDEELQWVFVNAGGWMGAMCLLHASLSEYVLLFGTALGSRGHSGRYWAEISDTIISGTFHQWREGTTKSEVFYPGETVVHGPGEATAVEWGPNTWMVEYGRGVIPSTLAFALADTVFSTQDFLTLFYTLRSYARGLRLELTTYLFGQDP", "settings": "believed to bind; cited from earlier work"}, "[3]": {"tested_on": "Aβ25-35-induced toxicity", "assay": "Aβ25-35 model, pre- and post-peptide administration schedules (Y maze, passive avoidance, hippocampal lipid peroxidation)", "assay_type": "in vivo, mice", "settings": "for anti-amnesic and neuroprotective effect against amyloid toxicity: drug administered before or after the amyloid peptide challenge"}, "[4]": {"tested_on": "muscarinic acetylcholine receptors", "settings": "believed to bind; cited from earlier work"}, "[5]": {"tested_on": "Aβ25-35-induced toxicity", "settings": "cited from earlier work"}, "[6]": {"tested_on": "seizures", "assay": "Seizure prophylaxis in single subjects (Examples 1-6)", "assay_type": "in vivo, human", "procedure": "A person is experiencing 4 to 7 seizures per day with a baseline of 6.6 seizures per day. A19-144 is administered daily at 2.0 mg for 5 days.\nThe subject is administered low dose donepezil (4 mg daily) for 5 days cotimely with continued A19-144 administration daily at 2.0 mg for 5 days.\nA person is experiencing 6 to 8 seizures per day with a baseline of 6.6 seizures per day. A19-144 is administered daily at 2.0 mg for 5 days.\nThe subject is administered low dose Eslicarbazepine acetate at 600 mg/day; for 5 days cotimely with continued A19-144 administration daily at 2.0 mg for 5 days.\nA person is experiencing seizures 3.2 per day. The subject is administered lacosamide at 60 mg two times per day for 5 days and cotimely administration of A19-144 daily at 2.0 mg for 5 days.\nThe person is experiencing an average of 3.3 seizures per day. The subject is administered Levetiracetam at 400 mg two times per day for 5 days and cotimely administration of 3.0 mg of A19-144 daily for 5 days."}, "[7]": {"target": "σ1 (Homo sapiens, UniProt Q99720)", "sequence (Q99720 whole entry)": "as above", "settings": "as compared with σ1 sites (so in the source); cited from earlier work"}, "[8]": {"target": "muscarinic M1-M4 receptors", "settings": "screening profile; cited from earlier work"}, "[9]": {"target": "σ2 sites (Homo sapiens, UniProt Q5BJF2)", "sequence (Q5BJF2 whole entry)": "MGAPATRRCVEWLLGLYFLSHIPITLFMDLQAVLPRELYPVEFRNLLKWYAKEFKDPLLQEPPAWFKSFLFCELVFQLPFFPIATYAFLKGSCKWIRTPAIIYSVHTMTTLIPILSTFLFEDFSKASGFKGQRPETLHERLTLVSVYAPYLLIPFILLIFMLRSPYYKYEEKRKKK", "settings": "reported binding analyses; cited from earlier work"}, "[10]": {"target": "NMDA receptors", "settings": "screening profile; cited from earlier work"}, "[11]": {"tested_on": "sodium channel site 2", "settings": "screening profile; cited from earlier work"}, "[12]": {"settings": "0.3 mg/kg ip once a day, day 7 to day 13 after Aβ25-35, measured 14 days after Aβ25-35"}, "[13]": {"settings": "0.1 or 0.3 mg/kg ip once a day, day -7 to day -1 before Aβ25-35, 7 days after Aβ25-35"}}, "note": "Where two headings read alike, the source gives them in different places."}
{"smiles": "CNCC1CCOC1(c1ccccc1)c1ccccc1.Cl", "note": "(centres unmarked) [A19-144, 1-(2,2-diphenyltetrahydrofuran-3-yl)-N-methylmethanamine hydrochloride]", "values": [{"measurement": "Cmax", "setting": "[1]; human, oral, across the 10 to 60 mg AV2-73 dose steps, plasma, FIG. 1", "result": "1.31 to 22.3", "unit": "ng/mL"}, {"measurement": "half-life", "setting": "[1]; human, oral, across the 10 to 60 mg AV2-73 dose steps, plasma, FIG. 1, read-out: mean terminal elimination half-life t1/2 of AV19-144", "result": "8.56 to 28.7", "unit": "h"}, {"measurement": "MRT", "setting": "[1]; human, plasma, oral, after 10 mg AV2-73, FIG. 2", "result": 14.3, "unit": "h"}, {"measurement": "MRT", "setting": "[1]; human, plasma, oral, after 60 mg AV2-73, FIG. 2", "result": 42.7, "unit": "h"}, {"measurement": "affinity for sigma-1 receptors", "setting": "[2]", "result": "low micromolar range"}, {"measurement": "lipid peroxidation increase", "setting": "[3]; [12]", "result": "effective"}, {"measurement": "memory deficits", "setting": "[3]; [12]", "result": "effective"}, {"measurement": "Aβ25-35-induced lipid peroxidation in the hippocampus", "setting": "[3]; [13]", "result": "blocks"}, {"measurement": "Aβ25-35-induced memory deficits (spontaneous alternation in the Y maze and passive avoidance response)", "setting": "[3]; [13]", "result": "blocks"}, {"measurement": "anti-amnesic and neuroprotective effect against amyloid toxicity", "setting": "[3]", "result": "effective in pre- and post-protection"}, {"measurement": "Aβ25-35-induced toxicity and learning impairments", "setting": "[3]; injected repeatedly one week after the peptide", "result": "able to reverse"}, {"measurement": "affinity for muscarinic acetylcholine receptors", "setting": "[4]", "result": "low micromolar range"}, {"measurement": "Aβ25-35-induced P-Akt decrease and P-GSK-3β increase", "setting": "[5]; Lahmy et al. 2013", "result": "blocked"}, {"measurement": "hyperphosphorylation of Tau on physiological (AT-8) and pathological (AT-100) epitopes", "setting": "[5]; in the dose-range tested", "result": "attenuated"}, {"measurement": "oxidative stress, caspases induction, cellular loss and learning and memory deficits", "setting": "[5]; mice one week after injection of oligomeric Aβ25-35 (Villard et al. 2011)", "result": "attenuating"}, {"measurement": "neuroprotection against amyloid toxicity", "setting": "[5]; mice, reported", "result": "neuroprotective potential"}, {"measurement": "seizures per day", "setting": "[6]; Example 1: person, baseline 6.6 per day, 2.0 mg daily for 5 days, for 8 weeks post dosing", "result": 2.2, "unit": "per day"}, {"measurement": "seizures per day", "setting": "[6]; Example 3: person, baseline 6.6 per day, 2.0 mg daily for 5 days, for 8 weeks post dosing", "result": 1.2, "unit": "per day"}, {"measurement": "seizures per day", "setting": "[6]; person of Example 1, at 6 months post dosing", "result": 2.2, "unit": "per day"}, {"measurement": "seizures per day (average)", "setting": "[6]; person of Example 3, at 6 months post dosing", "result": 1.2, "unit": "per day"}]}
{"smiles": "CN(C)CC1CCOC1(c1ccccc1)c1ccccc1.Cl", "note": "(centres unmarked) [A2-73, 1-(2,2-diphenyltetrahydrofuran-3-yl)-N,N-dimethylmethanamine hydrochloride]", "values": [{"measurement": "selectivity for the σ1 subtype", "setting": "[7]", "result": "better selectivity for the σ1 subtype"}, {"measurement": "IC50", "setting": "[8]", "result": "3.3 to 5.2", "unit": "µM"}, {"measurement": "biotransformation of AV2-73 to main metabolite AV19-144", "setting": "[1]; after oral administration", "result": "rapid and extensive biotransformation"}, {"measurement": "anti-amnesic and neuroprotective effect against amyloid toxicity", "setting": "[3]", "result": "effective in pre- and post-protection"}, {"measurement": "affinity for σ2 sites", "setting": "[9]", "result": "no affinity"}, {"measurement": "IC50", "setting": "[10]", "result": 8, "unit": "µM"}, {"measurement": "IC50", "setting": "[11]", "result": 5.1, "unit": "µM"}, {"measurement": "Aβ25-35-induced endogenous Aβ1-42 seeding", "setting": "[5]; reported", "result": "decreasing"}, {"measurement": "results of Examples 1 through 6 (seizure prophylaxis)", "setting": "[6]; A2-73 substituted for A19-144", "result": "similarly effective"}]}
